Assay results reported in PubChem BioAssay (NCI).
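GI50 marks 50% less growth. The concentration for full growth arrest is given as TGI.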

Columns and labels:
Assay in all cases: NCI-60 cell line screen, 384-well format
[1] = test system: 786-0 renal
[2] = test system: A498 renal
[3] = test system: A549 NSCLC
[4] = test system: ACHN renal
[5] = test system: BT-549 breast
[6] = test system: CAKI-1 renal
[7] = test system: CCRF-CEM leukemia
[8] = test system: COLO 205 colon
[9] = test system: DU-145 prostate
[10] = test system: EKVX NSCLC
[11] = test system: HCC-2998 colon
[12] = test system: HCT-15 colon
[13] = test system: HL-60(TB) leukemia
[14] = test system: HOP-62 NSCLC
[15] = test system: HOP-92 NSCLC
[16] = test system: HS 578T breast
[17] = test system: HT29 colon
[18] = test system: IGROV1 ovarian
[19] = test system: K-562 leukemia
[20] = test system: KM12 colon
[21] = test system: LOX IMVI melanoma
[22] = test system: M14 melanoma
[23] = test system: MALME-3M melanoma
[24] = test system: MCF7 breast
[25] = test system: MDA-MB-231 breast
[26] = test system: MDA-MB-435 melanoma
[27] = test system: MDA-MB-468 breast
[28] = test system: MOLT-4 leukemia
[29] = test system: NCI-H226 lung
[30] = test system: NCI-H23 lung
[31] = test system: NCI-H322M lung
[32] = test system: NCI-H460 NSCLC
[33] = test system: NCI-H522 lung
[34] = test system: NCI/ADR-RES ovarian
[35] = test system: OVCAR-3 ovarian
[36] = test system: OVCAR-4 ovarian
[37] = test system: OVCAR-5 ovarian
[38] = test system: OVCAR-8 ovarian
[39] = test system: PC-3 prostate
[40] = test system: RPMI-8226 leukemia
[41] = test system: RXF 393 renal
[42] = test system: SF-268 CNS
[43] = test system: SF-295 CNS
[44] = test system: SF-539 CNS
[45] = test system: SK-MEL-28 melanoma
[46] = test system: SK-MEL-5 melanoma
[47] = test system: SK-OV-3 ovarian
[48] = test system: SN12C renal
[49] = test system: SNB-19 CNS
[50] = test system: SNB-75 CNS
[51] = test system: SR leukemia
[52] = test system: SW-620 colon
[53] = test system: T-47D breast
[54] = test system: TK-10 renal
[55] = test system: U251 glioblastoma
[56] = test system: UACC-257 melanoma
[57] = test system: UACC-62 melanoma
[58] = test system: UO-31 renal
[59] = test system: HCT-116 colon

Work on `C[C@@H]1COC(Nc2ccc3ncnc(Nc4ccc(OCc5nccs5)c(Cl)c4)c3c2)=N1` yielded a GI50 [1] of 4.26 µM, a TGI [1] of 16.9 µM and a GI50 [2] of 4.31 µM. It also gave a TGI [2] of 19 µM, a GI50 [3] of 4.91 µM and a TGI [3] of 19.8 µM. The GI50 [4] was 0.563 µM, the TGI [4] was 17.4 µM and the GI50 [5] was 3.81 µM. For the same compound, the TGI [5] was 12.2 µM, the GI50 [6] was 1.81 µM and the TGI [6] was 14.8 µM. The GI50 [7] was 3.44 µM, the TGI [7] was 8.53 µM and the GI50 [8] was 6.44 µM. For the same compound, the TGI [8] was 19 µM, the GI50 [9] was 3.22 µM and the TGI [9] was 17.6 µM. It also gave a GI50 [10] of 0.332 µM, a TGI [10] of 11.4 µM and a GI50 [11] of 12.3 µM. For the same compound, the TGI [11] was 26.7 µM, the GI50 [12] was 5.44 µM and the TGI [12] was 21.5 µM. It also gave a GI50 [13] of 3.82 µM, a TGI [13] of 8.05 µM and a GI50 [14] of 4.22 µM. For the same compound, the TGI [14] was 15 µM, the GI50 [15] was 3.25 µM and the TGI [15] was 17 µM. For the same compound, the GI50 [16] was 4.71 µM, the TGI [16] was 15.6 µM and the GI50 [17] was 6.33 µM. It also gave a TGI [17] of 19.9 µM, a GI50 [18] of 0.335 µM and a TGI [18] of 2.13 µM. The GI50 [19] was 4.48 µM, the TGI [19] was 16.6 µM and the GI50 [20] was 5.6 µM. It also gave a TGI [20] of 18.8 µM, a GI50 [21] of 3.25 µM and a TGI [21] of 11.6 µM. For the same compound, the GI50 [22] was 6.3 µM, the TGI [22] was 18.3 µM and the GI50 [23] was 3.43 µM. It also gave a TGI [23] of 11.4 µM, a GI50 [24] of 5.96 µM and a TGI [24] of 21.2 µM. For the same compound, the GI50 [25] was 9.67 µM, the TGI [25] was 22.8 µM and the GI50 [26] was 11.8 µM. It also gave a TGI [26] of 24.7 µM, a GI50 [27] of 0.137 µM and a TGI [27] of 0.342 µM. The GI50 [28] was 1.85 µM, the TGI [28] was 3.59 µM and the GI50 [29] was 1.66 µM. It also gave a TGI [29] of 5.47 µM, a GI50 [30] of 7.4 µM and a TGI [30] of 26.3 µM. It also gave a GI50 [31] of 0.337 µM, a TGI [31] of 12.9 µM and a GI50 [32] of 3.71 µM. The TGI [32] was 12.8 µM, the GI50 [33] was 0.539 µM and the TGI [33] was 2.66 µM. It also gave a GI50 [34] of 2.39 µM, a TGI [34] of 6.92 µM and a GI50 [35] of 1.83 µM. It also gave a TGI [35] of 7.84 µM, a GI50 [36] of 2.32 µM and a TGI [36] of 14.8 µM. For the same compound, the GI50 [37] was 6.68 µM, the TGI [37] was 28.2 µM and the GI50 [38] was 3.12 µM. The TGI [38] was 12.4 µM, the GI50 [39] was 5.36 µM and the TGI [39] was 17 µM. The GI50 [40] was 3.48 µM, the TGI [40] was 11 µM and the GI50 [41] was 5.8 µM. It also gave a TGI [41] of 18.7 µM, a GI50 [42] of 9.55 µM and a TGI [42] of 23.5 µM. The GI50 [43] was 13 µM, the TGI [43] was 26.2 µM and the GI50 [44] was 12.3 µM. For the same compound, the TGI [44] was 24.8 µM, the GI50 [45] was 4.88 µM and the TGI [45] was 17.2 µM. For the same compound, the GI50 [46] was 1.77 µM, the TGI [46] was 4.21 µM and the GI50 [47] was 2.2 µM. It also gave a TGI [47] of 12.5 µM, a GI50 [48] of 2.78 µM and a TGI [48] of 16.1 µM. It also gave a GI50 [49] of 11.1 µM, a TGI [49] of 24.5 µM and a GI50 [50] of 13.5 µM. For the same compound, the TGI [50] was 28.2 µM, the GI50 [51] was 7.27 µM and the TGI [51] was 20.5 µM. The GI50 [52] was 19 µM, the TGI [52] was 35.7 µM and the GI50 [53] was 0.641 µM. For the same compound, the TGI [53] was 4.52 µM, the GI50 [54] was 1.48 µM and the TGI [54] was 17.9 µM. The GI50 [55] was 10.7 µM, the TGI [55] was 22.8 µM and the GI50 [56] was 9.37 µM. For the same compound, the TGI [56] was 21.2 µM, the GI50 [57] was 4.25 µM and the TGI [57] was 16.2 µM. The GI50 [58] was 10.9 µM and the TGI [58] was 23.6 µM.

Compound `Cc1ccccc1C(C(=O)NC1CCCCC1)N(C(=O)Cn1ccnc1C)c1cccc(F)c1` (configuration not stated) has a GI50 [1] greater than 100 µM, a TGI [1] greater than 100 µM and a GI50 [2] of 66.6 µM. The TGI [2] was greater than 100 µM, the GI50 [3] was greater than 100 µM and the TGI [3] was greater than 100 µM. For the same compound, the GI50 [4] was greater than 100 µM, the TGI [4] was greater than 100 µM and the GI50 [5] was greater than 100 µM. It also gave a TGI [5] greater than 100 µM, a GI50 [6] greater than 100 µM and a TGI [6] greater than 100 µM. For the same compound, the GI50 [7] was greater than 100 µM, the TGI [7] was greater than 100 µM and the GI50 [8] was greater than 100 µM. It also gave a TGI [8] greater than 100 µM, a GI50 [9] greater than 100 µM and a TGI [9] greater than 100 µM. It also gave a GI50 [10] greater than 100 µM, a TGI [10] greater than 100 µM and a GI50 [11] greater than 100 µM. It also gave a TGI [11] greater than 100 µM, a GI50 [59] greater than 100 µM and a TGI [59] greater than 100 µM. It also gave a GI50 [12] greater than 100 µM, a TGI [12] greater than 100 µM and a GI50 [13] greater than 100 µM. The TGI [13] was greater than 100 µM, the GI50 [14] was greater than 100 µM and the TGI [14] was greater than 100 µM. It also gave a GI50 [15] of 77.4 µM, a TGI [15] greater than 100 µM and a GI50 [16] of 27.4 µM. For the same compound, the TGI [16] was 83 µM, the GI50 [17] was greater than 100 µM and the TGI [17] was greater than 100 µM. The GI50 [18] was greater than 100 µM, the TGI [18] was greater than 100 µM and the GI50 [19] was greater than 100 µM. It also gave a TGI [19] greater than 100 µM, a GI50 [20] greater than 100 µM and a TGI [20] greater than 100 µM. The GI50 [21] was 52.7 µM, the TGI [21] was greater than 100 µM and the GI50 [22] was greater than 100 µM. It also gave a TGI [22] greater than 100 µM, a GI50 [23] greater than 100 µM and a TGI [23] greater than 100 µM. It also gave a GI50 [24] greater than 100 µM, a TGI [24] greater than 100 µM and a GI50 [25] of 51.1 µM. For the same compound, the TGI [25] was greater than 100 µM, the GI50 [26] was greater than 100 µM and the TGI [26] was greater than 100 µM. It also gave a GI50 [27] greater than 100 µM, a TGI [27] greater than 100 µM and a GI50 [28] greater than 100 µM. The TGI [28] was greater than 100 µM, the GI50 [29] was greater than 100 µM and the TGI [29] was greater than 100 µM. For the same compound, the GI50 [30] was greater than 100 µM, the TGI [30] was greater than 100 µM and the GI50 [31] was greater than 100 µM. The TGI [31] was greater than 100 µM, the GI50 [32] was greater than 100 µM and the TGI [32] was greater than 100 µM. The GI50 [33] was greater than 100 µM, the TGI [33] was greater than 100 µM and the GI50 [34] was greater than 100 µM. It also gave a TGI [34] greater than 100 µM, a GI50 [35] greater than 100 µM and a TGI [35] greater than 100 µM. The GI50 [36] was greater than 100 µM, the TGI [36] was greater than 100 µM and the GI50 [38] was 75.6 µM. The TGI [38] was greater than 100 µM, the GI50 [39] was greater than 100 µM and the TGI [39] was greater than 100 µM. It also gave a GI50 [40] greater than 100 µM, a TGI [40] greater than 100 µM and a GI50 [41] of 20.5 µM. For the same compound, the TGI [41] was 96.6 µM, the GI50 [42] was greater than 100 µM and the TGI [42] was greater than 100 µM. It also gave a GI50 [43] of 30 µM, a TGI [43] greater than 100 µM and a GI50 [44] of 36.2 µM. For the same compound, the TGI [44] was greater than 100 µM, the GI50 [45] was greater than 100 µM and the TGI [45] was greater than 100 µM. It also gave a GI50 [46] greater than 100 µM, a TGI [46] greater than 100 µM and a GI50 [47] greater than 100 µM. For the same compound, the TGI [47] was greater than 100 µM, the GI50 [48] was greater than 100 µM and the TGI [48] was greater than 100 µM. For the same compound, the GI50 [49] was greater than 100 µM, the TGI [49] was greater than 100 µM and the GI50 [50] was 26.8 µM. It also gave a TGI [50] greater than 100 µM, a GI50 [51] of 20 µM and a TGI [51] of 86.6 µM. The GI50 [52] was greater than 100 µM, the TGI [52] was greater than 100 µM and the GI50 [53] was 24.5 µM. The TGI [53] was greater than 100 µM, the GI50 [54] was 49.2 µM and the TGI [54] was greater than 100 µM. For the same compound, the GI50 [55] was greater than 100 µM, the TGI [55] was greater than 100 µM and the GI50 [56] was greater than 100 µM. For the same compound, the TGI [56] was greater than 100 µM, the GI50 [57] was greater than 100 µM and the TGI [57] was greater than 100 µM. It also gave a GI50 [58] greater than 100 µM and a TGI [58] greater than 100 µM.
